Earlier results, collected in patent publication US20180055935A1, “METHOD FOR THE PRODUCTION OF A FORMULATION OF A HYPERICIN SALT” (Sanochemia Pharmazeutika AG, priority 2015, published 2018).

System: bladder carcinoma
Conditions: hypericin 30 μM using polyethylene glycol, 595 nm, 25 up to 50 mW/cm^2

## Cc1cc(O)c2c(=O)c3c(O)cc(O)c4c5c(O)cc(O)c6c(=O)c7c(O)cc(C)c8c1c2c(c34)c(c78)c65 [hypericin, 1,3,4,6,8,13-hexahydroxy-10, 11-dimethylphenanthro (1,10,9,8-opqra)perylene-7, 14-dione]
  tumor cells killed: up to 98%
